The target in the assay is 40-residue Alzheimer’s β-amyloid peptide (Aβ40) fibrils (Homo sapiens, UniProt P05067). Put plainly: HPLC titration of free/bound ligand on preformed fibrils. In kind it is binding.

The source of these data is paper PMC8855532 (Journal of the American Chemical Society, 2022).

Chain of 40-residue Alzheimer’s β-amyloid peptide (Aβ40) fibrils (P05067 672-711): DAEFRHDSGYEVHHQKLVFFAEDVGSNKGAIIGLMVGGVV

Take `CNc1ccc(-c2nc3ccc(O)cc3s2)cc1F` [flutemetamol]: binding was put at a Kd of 1600 ± 200 nM.
